Values of other authors, collected in patent US4202888A, “Readily enterally absorbable pharmaceutical compositions of cardiac glycosides and preparation thereof” (priority 1976, dated 1980).

Conditions: for enteral absorbability (in words): background statement; for per se enteral absorbability: without partial glycerides

Molecule	enteral absorbability (in words)	factor of individual variation in enteral absorption (between individuals)	per se enteral absorbability
C[C@H]1O[C@@H](O[C@H]2[C@@H](O)C[C@H](O[C@H]3[C@@H](O)C[C@H](O[C@H]4CC[C@@]5(C)[C@H](CC[C@@H]6[C@@H]5CC[C@]5(C)[C@@H](C7=CC(=O)OC7)CC[C@]65O)C4)O[C@@H]3C)O[C@@H]2C)C[C@H](O)[C@@H]1O [digitoxin]	absorbable completely	–	–
C[C@H]1O[C@@H](O[C@H]2[C@@H](O)C[C@H](O[C@H]3[C@@H](O)C[C@H](O[C@H]4CC[C@@]5(C)[C@H](CC[C@@H]6[C@@H]5C[C@@H](O)[C@]5(C)[C@@H](C7=CC(=O)OC7)CC[C@]65O)C4)O[C@@H]3C)O[C@@H]2C)C[C@H](O)[C@@H]1O [digoxin]	to at least an acceptable degree	–	–
CC1OC(OC2CC(O)C3(CO)C4C(O)CC5(C)C(C6=CC(=O)OC6)CCC5(O)C4CCC3(O)C2)C(O)C(O)C1O (stereo not drawn) [g-strophanthin]	insufficient enteral absorbability	10	less than 5%
C[C@@H]1O[C@@H](O[C@@H]2C=C3CC[C@@H]4[C@H](CC[C@]5(C)[C@@H](c6ccc(=O)oc6)CC[C@]45O)[C@@]3(C)CC2)[C@H](O)[C@H](O)[C@H]1O [proscillaridin]	insufficient enteral absorbability	–	less than 5%
k-strophanthin	insufficient enteral absorbability	–	less than 5%
